# Measured values taken from US20160138077A1, “MONITORING AND ASSESSING DEACETYLASE ENZYME ACTIVITY” (THE GENERAL HOSPITAL CORPORATION, priority 2013, published 2016).
# Tests used:
# Assay type in all cases: biochemical
# [1] = target: T1, Pepsin (Sus scrofa, UniProt P00791); test: LCMS assay of protease enzymatic action on HP-1 (HDAC buffer at pH 4); conditions: −SAHA, 5 μM HP-1, 12 hours at 37° C.
# T1 construct: purchased Sigma-Aldrich
# Procedure: (§1) The enzymatic cleavage of HP-1 was analyzed by performing LCMS assays with sirtuin 1 and 3 (Cayman Chemicals) and the proteases chymotrypsin (Sigma-Aldrich), cathepsin (EMD Millipore), and pepsin* (Sigma-Aldrich). Solutions containing (i) vehicle with DMSO in HDAC buffer, (ii) 5 μM HP-1 in HDAC buffer, and (iii) 5 μM HP-1 and the enzyme in HDAC buffer were incubated for 12 hours at 37° C. Following incubation, a 20 μL aliquot of supernatant from each sample was analyzed by LCMS. Deacetylation of HP-1 was investigated by screening for the DHP-1 (M+H)^+ ion following positive electrospray ionization. All assay samples were analyzed in triplicate. […]
# (§2) HP-1 was not altered by sirtuins 1 and 3 or the proteases chymotrypsin, cathepsin and pepsin, as determined by LCMS. […] For Cathepsin B, the cleavage of the enzyme substrate, z-RR-pNA (Santa Cruz Biotechnology, Dallas, Tex.) was monitored using a Wallac EnVision 2103 Multilabel fluorescence plate reader (PerkinElmer, Waltham, Mass.) with a 405 nm excitation filter, a 406 nm emission filter, and a gain of 150. The cleavage of the pepsin substrate, Ac-Phe-Tyr-OH (Chem-Impex Inc.), was monitored by LCMS at pH 4. […]
# [2] = target: T2, HDAC3 (Homo sapiens, UniProt O15379); test: Caliper microfluidic endpoint IC50 assay
# T2 construct: purchased Cayman Chemicals
# Procedure: (§3) HP-1 and HP-2 IC50 values for HDAC1 were determined using the Trypsin-coupled assay as well as the Caliper endpoint assay. HP-1 and HP-2 IC50 values for HDAC2, HDAC3, HDAC6 and HDAC8 were determined with the Caliper endpoint assay.
# (§4) The Caliper microfluidic assay was performed at the Broad Institute exactly as previously described.^5
# (§5) IC50 measurements. HP-1 and HP-2 IC50 values for HDAC1 were determined using the Trypsin-coupled assay as well as the Caliper endpoint assay. HP-1 and HP-2 IC50 values for HDAC2, HDAC3, HDAC6 and HDAC8 were determined with the Caliper endpoint assay (full experimental details in Example 1).
# [3] = target: T3, HDAC6 (Homo sapiens, UniProt Q9UBN7); test: Caliper microfluidic endpoint IC50 assay
# T3 sequence (Q9UBN7 1-1215): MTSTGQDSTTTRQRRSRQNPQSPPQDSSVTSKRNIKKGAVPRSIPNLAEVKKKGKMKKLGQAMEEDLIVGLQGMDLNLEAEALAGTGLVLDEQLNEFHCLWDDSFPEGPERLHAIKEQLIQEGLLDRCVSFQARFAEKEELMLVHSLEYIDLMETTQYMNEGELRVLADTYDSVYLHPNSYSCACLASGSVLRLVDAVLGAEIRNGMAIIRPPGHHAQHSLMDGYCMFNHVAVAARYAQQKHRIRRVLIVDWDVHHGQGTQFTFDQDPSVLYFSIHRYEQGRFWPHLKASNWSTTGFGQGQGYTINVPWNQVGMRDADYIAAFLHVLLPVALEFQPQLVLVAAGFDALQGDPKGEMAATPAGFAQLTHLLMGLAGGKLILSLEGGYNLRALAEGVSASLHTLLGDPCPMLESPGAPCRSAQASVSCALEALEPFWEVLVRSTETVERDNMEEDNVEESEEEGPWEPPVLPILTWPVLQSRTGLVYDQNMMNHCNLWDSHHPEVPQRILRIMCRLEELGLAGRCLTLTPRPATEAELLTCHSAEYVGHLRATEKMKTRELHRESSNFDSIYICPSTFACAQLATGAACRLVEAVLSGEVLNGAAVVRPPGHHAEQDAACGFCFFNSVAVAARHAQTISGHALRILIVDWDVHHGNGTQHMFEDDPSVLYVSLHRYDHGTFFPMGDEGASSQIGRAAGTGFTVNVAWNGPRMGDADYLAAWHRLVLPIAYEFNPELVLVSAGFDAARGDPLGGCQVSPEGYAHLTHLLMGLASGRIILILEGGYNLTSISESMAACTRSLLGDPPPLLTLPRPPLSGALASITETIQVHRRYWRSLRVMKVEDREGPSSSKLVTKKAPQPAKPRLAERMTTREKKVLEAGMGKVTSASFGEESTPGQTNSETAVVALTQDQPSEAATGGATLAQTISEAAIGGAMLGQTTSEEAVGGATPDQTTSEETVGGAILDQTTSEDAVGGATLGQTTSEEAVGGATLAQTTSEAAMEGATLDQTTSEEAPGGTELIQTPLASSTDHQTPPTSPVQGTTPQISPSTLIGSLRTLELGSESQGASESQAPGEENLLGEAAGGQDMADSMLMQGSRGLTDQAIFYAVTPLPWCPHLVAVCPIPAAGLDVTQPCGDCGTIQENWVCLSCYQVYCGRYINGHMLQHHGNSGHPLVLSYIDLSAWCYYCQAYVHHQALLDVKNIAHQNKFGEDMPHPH
# Procedure: as §3, §4, §5
# [4] = target: T4, Cathepsin B (Homo sapiens, UniProt P07858); test: LCMS assay of protease enzymatic action on HP-1; conditions: −SAHA, 5 μM HP-1, 12 hours at 37° C.
# T4 construct: purchased EMD Millipore
# Procedure: as §1, §2
# [5] = target: T5, Chymotrypsin (Bos taurus, UniProt P00766); test: LCMS assay of protease enzymatic action on HP-1; conditions: −SAHA, 5 μM HP-1, 12 hours at 37° C.
# T5 construct: purchased Sigma-Aldrich
# Procedure: as §1, §2
# T1 sequence (P00791 60-385): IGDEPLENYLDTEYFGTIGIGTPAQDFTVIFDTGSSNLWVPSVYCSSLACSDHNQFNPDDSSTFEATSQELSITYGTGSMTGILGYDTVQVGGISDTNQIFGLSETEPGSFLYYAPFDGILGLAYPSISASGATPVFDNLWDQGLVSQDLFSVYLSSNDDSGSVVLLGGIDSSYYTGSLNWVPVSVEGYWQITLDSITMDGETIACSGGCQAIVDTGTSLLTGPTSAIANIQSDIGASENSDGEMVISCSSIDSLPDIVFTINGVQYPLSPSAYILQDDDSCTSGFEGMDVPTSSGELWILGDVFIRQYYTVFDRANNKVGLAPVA
# T2 sequence (O15379 whole entry): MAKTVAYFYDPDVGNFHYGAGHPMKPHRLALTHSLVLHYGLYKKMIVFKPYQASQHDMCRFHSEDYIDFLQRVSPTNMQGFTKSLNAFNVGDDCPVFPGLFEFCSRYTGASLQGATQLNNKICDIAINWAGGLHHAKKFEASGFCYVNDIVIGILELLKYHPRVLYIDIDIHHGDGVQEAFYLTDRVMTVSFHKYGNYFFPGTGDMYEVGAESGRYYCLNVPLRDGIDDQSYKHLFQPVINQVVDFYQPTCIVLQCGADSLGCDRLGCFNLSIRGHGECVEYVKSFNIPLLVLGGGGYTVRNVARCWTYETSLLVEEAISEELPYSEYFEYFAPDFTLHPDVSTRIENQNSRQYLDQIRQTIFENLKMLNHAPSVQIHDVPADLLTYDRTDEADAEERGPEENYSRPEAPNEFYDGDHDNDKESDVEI
# T2 sequence (Q9Y618 395-489 partner limits assumed): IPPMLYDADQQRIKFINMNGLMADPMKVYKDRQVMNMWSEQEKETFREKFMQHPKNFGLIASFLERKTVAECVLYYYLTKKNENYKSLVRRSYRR
structure (smiles),measurement,setting,value
CC(=O)NC=CCCCCNC(=O)CCCCCNc1ccc([N+](=O)[O-])c2nonc12 [HP-1],% HP-1 to DHP-1,[1],0%
same,IC50,[2],59 µM
same,IC50,"[3]; HDAC6, Caliper endpoint assay",12 µM
same,binding to HDAC6 (in words),[3]; competitive inhibition with a peptide substrate,bind
same,% HP-1 to DHP-1,[4],0%
same,% HP-1 to DHP-1,[5],0%
